In this test the target is T1, SMYD3/KMT3E (Homo sapiens, UniProt Q9H7B4).
T1 construct: the human recombinant SMYD3 (residues 2–428, C-terminus); C-terminal His-tag; His (C); purchased Reaction Biology Corporation
T1 sequence (Q9H7B4 2-428): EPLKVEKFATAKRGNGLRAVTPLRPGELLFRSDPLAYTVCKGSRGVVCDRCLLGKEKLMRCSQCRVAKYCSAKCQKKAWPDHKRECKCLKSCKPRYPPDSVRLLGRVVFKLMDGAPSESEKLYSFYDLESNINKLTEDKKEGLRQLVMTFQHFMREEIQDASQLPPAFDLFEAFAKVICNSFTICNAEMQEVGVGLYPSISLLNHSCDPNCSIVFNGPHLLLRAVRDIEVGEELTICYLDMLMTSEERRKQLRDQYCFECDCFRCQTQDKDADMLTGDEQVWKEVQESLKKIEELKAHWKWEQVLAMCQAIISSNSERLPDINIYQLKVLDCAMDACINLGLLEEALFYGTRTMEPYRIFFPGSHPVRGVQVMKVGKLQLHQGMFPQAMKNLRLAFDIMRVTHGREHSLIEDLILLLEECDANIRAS
As to the kind of experiment: HotSpot KMT activity assay, SMYD3. The conditions noted are these: read-out: % SMYD3 residual activity. The class given is biochemical. The source says: ; MW = 35.4 kDa; Genbank Accession # NM_018489), or the human recombinant EZH2-containing five-member polycomb repressive complex 2 (including EZH2 residues 2–746, AEBP2 2–517, EED 2–441, RbAp48 2–425, SUZ12 2–739; all full-length; with N-terminal Flag-tag on EED and N-terminal His-tag on all others; MW = 333.8 kDa; Genbank Accession # NM_001203247, NM_001114176, NM_003797, NM_005610, NM_015355), or the human recombinant G9a (residues 913–1193, C-terminus; with an N-terminal His-tag; MW = 34.6 kDa; Genbank Accession # NM_006709.3), or the human recombinant MLL1 complex (including MLL1 residues 3745–3969, C-terminus, WDR5 22–334, C-terminus, RbBP5 1–538, C-terminus, ASH2L 2–534, C-terminus, DPY-30 1–99, C-terminus; N-terminal His-tag on all subunits; MW = 212.0 kDa; Genbank Accession # NM_005933, NM_017588, NM_005057, NM_001105214, NM_0325742), or the human recombinant SET7/9 (residues 2–366, C-terminus; with a N-terminal GST-tag and a C-terminal His-tag; MW = 68.5 kDa; Genbank Accession # NM_030648), or the human recombinant SMYD3 (residues 2–428, C-terminus; C-terminal His-tag; MW = 50.1 kDa; Genbank Accession # NM_001167740), or the human recombinant SUV39H2 (residues 46–410, C-terminus; N-terminal fusion protein with a C-terminal His-tag; MW = 98.8 kDa; GenBank Accession No. NM_001193424), or the human recombinant DOT1L (residues 1–416; N-terminal GST-tag; MW = 80.0 kDa; Genbank Accession # NM_032482) was added to a solution of the proper substrate (oligo nucleosomes for ASH1L, MLL1 complex, and DOT1L, final concentration 0.05 mg/mL; core histone for EZH2 complex and SET7/9, final concentration 0.05 mg/mL; histone H3 for SUV39H2, final concentration 5 μM; histone H3 1–21 for G9a, final concentration 2.5 μM) in freshly prepared reaction buffer (50 mM Tris-HCl (pH 8.5), 5 mM MgCl2, 50 mM NaCl, 1 mM DTT, 1 mM PMSF, 1% DMSO) and gently mixed. […] After incubation for 60 min at 30 °C, the reaction mixture was delivered to filter paper for detection (as assessed by scintillation). […] Values obtained for each compound are mean ± SD determined for two separate experiments.

On to `COC(=O)c1cc(O)c2cc(NC(=O)NCCCNC(=N)NC[C@H]3O[C@@H](n4cnc5c(N)ncnc54)[C@H](O)[C@@H]3O)cc(C(F)(F)F)c2c1` [1j, Methyl 6-(3-(3-(3-(((2R,3S,4R,5R)-5-(6-Amino-9H-purin-9-yl)-3,4-dihydroxytetrahydrofuran-2-yl)methyl)guanidino)propyl)ureido)-4-hydroxy-8-(trifluoromethyl)-2-naphthoate], for which the remaining activity at 10 µM (10 μM) was determined as 99.1 ± 1.41%. For the same molecule, the remaining activity at 100 µM (100 μM) was 74.2 ± 1.8%.
